In US10227310B2, “Ghrelin 0-acyl transferase inhibitors” (Eli Lilly and Company, priority 2015, dated 2019):

Assays:
[1] = target: human GOAT (Homo sapiens (Human), UniProt Q96T53); assay: In vitro cell free human GOAT enzymatic assay; assay type: biochemical; conditions: cell free human GOAT enzyme, ELISA readout of acyl-ghrelin
Description: Human GOAT gene (Accession number: NM_001100916) is subcloned to pAN51 baculoviral expression vector. Baculovirus stock is prepared following the Bac-to-Bac Protocol provided by the vendor, Invitrogen, California, USA. Five mililiters of human GOAT baculoviral stock are added to 500 mL Sf9 cells in HyQ SFX-Insect™ media (HyClone catalog number SH30278.02) at the density of 1×10^6 cells per milliliter in a 2 L Erlenmeyer flask. The flask with human GOAT gene infected Sf9 cells is put on a plate shaker at 120 rpm at 28° C. for 48 h. After 48 h incubation, cells are centrifuged at 1,000×g for 10 min at 4° C. The cell pellets are collected and stored at −80° C. in a freezer until ready for further processing.
Preparation of Microsomal Membrane of GOAT Enzyme for the Enzymatic Assay:
One gram cell pellets are suspended in 9 mL chilled homogenization buffer (50 mM Tris-HCl, 250 mM sucrose, adjusted to pH 7.5, and sterile filtered through 0.2 μm Millipore filter). The cell suspension is transferred to a Dounce glass homogenizer. Cell pellets are homogenized with 40 strokes on ice. The homogenate is centrifuged at 3,000 rpm in a Beckman swing bucket rotor at 4° C. for 10 min to remove unbroken cells. The supernatant is collected and centrifuged at 40,000×g for 1 h at 4° C. The resulting membrane pellet is suspended in the homogenization buffer using a Dounce glass homogenizer and stored at −20° C. in the freezer for the assay. For long term storage of the human GOAT enzyme membrane preparation, the suspended membrane is stored in a −80° C. freezer.
Human GOAT Enzymatic Assay Protocol:
Prepare test compounds in DMSO to make up a 0.2 mM stock solution. Serially dilute the stock solution in DMSO for ten concentrations with final compound concentrations ranging from 10 μM to 0.5 nM in a 96-well round-bottom plate. Prepare enzyme and substrate solutions in assay buffer (0.02% TWEEN™-20 in 50 mM Tris, pH 7.5 containing 250 mM sucrose, 1 mg/mL BSA and 10 mM EDTA). Add diluted compound (1 μL) to each well of row A to N of a corresponding low protein binding 384 well plate. […] Incubate the mixture for 1 h at RT on a gently rotating oscillator. Add 4 M guanidine hydrochloride (20 μL) to all wells, mix, and incubate for 3 h to stop the reaction.
Aspirate the blocking buffer from ELISA plate and add blocking buffer (23 μL) to columns 1-24, rows A-N. Reserve rows O and P for the acylghrelin standard curve. Add the reaction mixture (2 μL) to the ELISA plates. […] Incubate the reaction mixture or biotin-labeled AG standard in the ELISA plate overnight at 4° C. The following day, wash the plate 3× with wash buffer (0.1% TWEEN™-20/PBS, 100 μL per well in each wash cycle). […] Wash the plate 3× with the wash buffer, similarly to the previous step. Add Protein G-HRP (25 μL) (Southern Biotech) diluted 3,000× in blocking buffer and incubate 1 h at RT. Wash the late 3× with wash buffer, as in the previous steps. Add TMB reagent (25 μL) (Kirkegaard & Perry Laboratories, Inc.) to each well and let develop for 20 min and stop with 1 M phosphoric acid (25 μL per well). Read plates at 450 nm using an ENVISION® Multilabel plate reader. AG levels are calculated versus a fitted standard curve and percent inhibition calculated.

[2] = target: GOAT enzyme (Mus musculus (Mouse), UniProt P0C7A3); assay: In vivo dose dependent 3 day BID study for GOAT inhibitor (plasma AG, UAG by ELISA); set-up: species or system male C57BL/6 mice; conditions: mice; for decrease of plasma AG / increase of UAG / reduction in AG to total ghrelin ratio: 3 days; for decrease of plasma AG / increase of UAG: vs vehicle; for reduction in AG to total ghrelin ratio: vs vehicle-treated control animals; for AG (% of control) / AG/Total-ghrelin (% of vehicle control) / UAG (% of vehicle control): plasma
Description: Comparing the change in the ratio of AG to total ghrelin in the compound treated group and that of the vehicle treated group reflects the degree of GOAT enzyme inhibition in vivo, due to the dynamic processing of UAG to AG by the GOAT enzyme. In the in vivo pharmacodynamic studies herein, the levels of AG and UAG in plasma and stomach in the vehicle and compound treated groups are measured by ELISA specifically to these two analytes. The total ghrelin level of each sample is computed as the sum of AG and UAG by these ELISA measurements. The ratio of AG to total ghrelin is defined by the level of AG in each sample divided by the level of total ghrelin in the same sample. The levels of AG, UAG and ratio of AG to total ghrelin in the vehicle treated group is computed and set as 100%. The relative change of these parameters in the compound treated group is then computed to determine the effectiveness of the test compound.
Purchase male C57BL/6 mice from Harlan (Indianapolis, Ind.) at 9 weeks of age. House the mice individually in a temperature-controlled (24° C.) facility with a 12 h light/dark cycle (lights on 2200 h), and allow free access to a standard rodent chow (diet 2014, Harlan) and water. Typically, use the mice when they are 10-13 weeks of age at the time of the study. On day 0 of the experiment, randomize the mice into treatment groups (N=7/group) so each group has similar mean body weights. On day 1 and day 2, treat the animals with vehicle (1% hydroxyethylcellulose, 0.25% TWEEN™ 80, 0.05% antifoam) or test compound prepared in the vehicle as suspension at various dosages by oral gavage at 7 am and 7 pm. On day 3, fast the animals, move them into clean cages and dose with vehicle or the test compound again at 8 am by oral gavage. That same day at 1 pm, sacrifice the animals by decapitation to collect blood. For details of blood collection and plasma treatments see Blood collection and Extraction of Ghrelin from Plasma section below.
Collect approximately 600 μL blood into a pre-weighed EDTA tube containing 600 μL (defined as Vpreservative) freshly-prepared preservative (4 mM PEFABLOC® [4-(2-aminoethyl) benzenesulfonyl fluoride hydrochloride], 72 mM NaCl, 58 mM NaF, 0.032 N hydrochloric acid, pH 3.0) and mix immediately. Weigh the tube again and keep on ice. To accurately determine the exact blood volume of each sample using this blood collection procedure, the weight of the blood for each mouse is computed using the following equation: Weight of Blood=(Weight of the tube containing Blood+preservative)−(Weight of the tube containing preservative) Blood volume(Vblood)=(Weight of blood)/1.06
Within 15 minutes after the blood collection, samples are centrifuged at 5000 rpm at 4° C. for 8 min. Remove plasma (650 μL) to a 5 mL glass tube containing 1 N hydrochloric acid (65 μL), mix and keep on ice.
AG and UAG are extracted from plasma using SEP-PAK® C18 column to remove interference prior to performing the ELISA. The solid phase extraction of AG and UAG peptides by SEP-PAK® C18 columns can be performed on a vacuum manifold (Waters Corp) or using a peristaltic pump. The sample SEP-PAK® column extraction procedure is independently applied to the plasma sample obtained from each individual mouse. The general extraction protocol is described as follows.
All solutions used for the entire protocol of the SEP-PAK® column extraction should be at ice cold condition. Wet SEP-PAK®_columns (WAT054960, Waters Corp, Milford Mass.) with 99.9% ACN/0.1% TFA (1 mL of solution of 100 mL ACN/0.1 mL TFA). […] Once liquid is removed from the column, stop the pressure. Equilibrate the columns with 3% ACN/0.1% TFA (1 mL of 97 mL water, 3 mL ACN, 0.1 mL TFA). […] Dilute approximately 650 μL acidified plasma (defined as Vplasma added to column) to 1.4 mL ice cold 0.1% TFA. Load all diluted acidified plasma from the previous step onto the columns. […]

GOAT enzyme, sequence (P0C7A3 whole entry): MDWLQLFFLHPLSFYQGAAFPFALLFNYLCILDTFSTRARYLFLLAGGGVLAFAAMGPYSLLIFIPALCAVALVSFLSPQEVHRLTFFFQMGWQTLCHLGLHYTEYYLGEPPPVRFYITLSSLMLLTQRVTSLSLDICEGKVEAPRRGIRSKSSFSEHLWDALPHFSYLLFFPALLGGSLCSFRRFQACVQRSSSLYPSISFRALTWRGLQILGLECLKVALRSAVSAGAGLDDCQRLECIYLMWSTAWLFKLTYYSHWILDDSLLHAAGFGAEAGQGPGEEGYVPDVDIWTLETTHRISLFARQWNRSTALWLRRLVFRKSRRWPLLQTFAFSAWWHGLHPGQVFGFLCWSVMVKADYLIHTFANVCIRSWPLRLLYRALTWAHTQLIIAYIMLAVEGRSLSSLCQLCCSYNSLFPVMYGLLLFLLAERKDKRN
human GOAT, sequence (Q96T53 whole entry): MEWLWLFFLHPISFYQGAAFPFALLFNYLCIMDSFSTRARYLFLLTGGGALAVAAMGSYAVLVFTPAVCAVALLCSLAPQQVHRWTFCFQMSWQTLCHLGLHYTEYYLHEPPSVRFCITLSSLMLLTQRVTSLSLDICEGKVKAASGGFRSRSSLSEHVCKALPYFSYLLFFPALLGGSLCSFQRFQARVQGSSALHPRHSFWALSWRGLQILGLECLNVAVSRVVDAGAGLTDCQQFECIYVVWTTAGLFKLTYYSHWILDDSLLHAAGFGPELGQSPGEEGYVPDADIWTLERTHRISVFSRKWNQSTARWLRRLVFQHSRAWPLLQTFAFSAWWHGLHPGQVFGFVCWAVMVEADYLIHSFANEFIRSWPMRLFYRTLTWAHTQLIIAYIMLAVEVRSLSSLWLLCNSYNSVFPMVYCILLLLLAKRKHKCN

SMILES: Cc1nc(Cl)nc(N)c1CCC1CCN(C(=O)[C@H](C)NC(=O)c2cn[nH]c2C)CC1 [Example 2, N-[(1S)-2-[4-[2-(4-Amino-2-chloro-6-methyl-pyrimidin-5-yl)ethyl]-1-piperidyl]-1-methyl-2-oxo-ethyl]-5-methyl-1H-pyrazole-4-carboxamide]
- IC50 [1]: 54.4 nM

SMILES: Cc1nc(N)c(CCC2CCCN(C(=O)[C@H](C)NC(=O)c3ccncc3)CC2)c(Cl)n1 (stereo partly drawn) [Example 37, N-[(1S)-2-[(4R,S)-4-[2-(4-Amino-6-chloro-2-methyl-pyrimidin-5-yl)ethyl]azepan-1-yl]-1-methyl-2-oxo-ethyl] pyridine-4-carboxamide]
- IC50 [1]: 574 nM

SMILES: Cc1nc(N)c(CCC2CCN(C(=O)[C@H](C)NC(=O)c3cnc(C)s3)CC2)c(Cl)n1 [Example 42, N-[(1S)-2-[4-[2-(4-Amino-6-chloro-2-methyl-pyrimidin-5-yl)ethyl]-1-piperidyl]-1-methyl-2-oxo-ethyl]-2-methyl-thiazole-5-carboxamide]
- decrease of plasma AG ([2]; 0.3 mg/kg): 51%
- increase of UAG ([2]; 0.3 mg/kg): 1.61 fold
- reduction in AG to total ghrelin ratio ([2]; 0.3 mg/kg): 61%
- decrease of plasma AG ([2]; 1 mg/kg): 57%
- increase of UAG ([2]; 1 mg/kg): 2.04 fold
- reduction in AG to total ghrelin ratio ([2]; 1 mg/kg): 73%
- decrease of plasma AG ([2]; 3 mg/kg): 70%
- increase of UAG ([2]; 3 mg/kg): 2.00 fold
- reduction in AG to total ghrelin ratio ([2]; 3 mg/kg): 81%
- AG (% of control) ([2]; 0.3 mg/kg oral BID 3 days): 49 ± 7 (n = 7) % of control
- AG/Total-ghrelin (% of vehicle control) ([2]; 0.3 mg/kg oral BID 3 days): 39 ± 2 (n = 7) % of vehicle control
- UAG (% of vehicle control) ([2]; 0.3 mg/kg oral BID 3 days): 161 ± 24 (n = 7) % of vehicle control
- AG (% of control) ([2]; 1 mg/kg oral BID 3 days): 43 ± 6 (n = 7) % of control
- AG/Total-ghrelin (% of vehicle control) ([2]; 1 mg/kg oral BID 3 days): 27 ± 1 (n = 7) % of vehicle control
- UAG (% of vehicle control) ([2]; 1 mg/kg oral BID 3 days): 204 ± 24 (n = 7) % of vehicle control
- AG (% of control) ([2]; 3 mg/kg oral BID 3 days): 30 ± 4 (n = 7) % of control
- AG/Total-ghrelin (% of vehicle control) ([2]; 3 mg/kg oral BID 3 days): 19 ± 1 (n = 7) % of vehicle control
- UAG (% of vehicle control) ([2]; 3 mg/kg oral BID 3 days): 200 ± 20 (n = 7) % of vehicle control
- IC50 [1]: 96.4 ± 28.3 nM

SMILES: Cc1nc(N)c(CCC2CCN(C(=O)[C@H](C)NC(=O)c3ccnn3C)CC2)c(Cl)n1 [Example 66, N-[(1S)-2-[4-[2-(4-Amino-6-chloro-2-methyl-pyrimidin-5-yl)ethyl]-1-piperidyl]-1-methyl-2-oxo-ethyl]-2-methyl-pyrazole-3-carboxamide]
- decrease of plasma AG ([2]; 0.2 mg/kg): 34%
- increase of UAG ([2]; 0.2 mg/kg): 2.13 fold
- reduction in AG to total ghrelin ratio ([2]; 0.2 mg/kg): 50%
- decrease of plasma AG ([2]; 0.6 mg/kg): 52%
- increase of UAG ([2]; 0.6 mg/kg): 2.61 fold
- reduction in AG to total ghrelin ratio ([2]; 0.6 mg/kg): 65%
- decrease of plasma AG ([2]; 2 mg/kg): 72%
- increase of UAG ([2]; 2 mg/kg): 2.92 fold
- reduction in AG to total ghrelin ratio ([2]; 2 mg/kg): 79%
- decrease of plasma AG ([2]; 6 mg/kg): 79%
- increase of UAG ([2]; 6 mg/kg): 3.02 fold
- reduction in AG to total ghrelin ratio ([2]; 6 mg/kg): 84%
- decrease of plasma AG ([2]; 18 mg/kg): 81%
- increase of UAG ([2]; 18 mg/kg): 2.79 fold
- reduction in AG to total ghrelin ratio ([2]; 18 mg/kg): 86%
- AG (% of control) ([2]; 0.2 mg/kg oral BID 3 days): 66 ± 12 (n = 7) % of control
- AG/Total-ghrelin (% of vehicle control) ([2]; 0.2 mg/kg oral BID 3 days): 50 ± 3 (n = 7) % of vehicle control
- UAG (% of vehicle control) ([2]; 0.2 mg/kg oral BID 3 days): 213 ± 27 (n = 7) % of vehicle control
- AG (% of control) ([2]; 0.6 mg/kg oral BID 3 days): 48 ± 4 (n = 7) % of control
- AG/Total-ghrelin (% of vehicle control) ([2]; 0.6 mg/kg oral BID 3 days): 35 ± 1 (n = 7) % of vehicle control
- UAG (% of vehicle control) ([2]; 0.6 mg/kg oral BID 3 days): 261 ± 30 (n = 7) % of vehicle control
- AG (% of control) ([2]; 2 mg/kg oral BID 3 days): 28 ± 3 (n = 14) % of control
- AG/Total-ghrelin (% of vehicle control) ([2]; 2 mg/kg oral BID 3 days): 21 ± 1 (n = 14) % of vehicle control
- UAG (% of vehicle control) ([2]; 2 mg/kg oral BID 3 days): 292 ± 43 (n = 14) % of vehicle control
- AG (% of control) ([2]; 6 mg/kg oral BID 3 days): 21 ± 3 (n = 7) % of control
- AG/Total-ghrelin (% of vehicle control) ([2]; 6 mg/kg oral BID 3 days): 16 ± 1 (n = 7) % of vehicle control
- UAG (% of vehicle control) ([2]; 6 mg/kg oral BID 3 days): 302 ± 48 (n = 7) % of vehicle control
- AG (% of control) ([2]; 18 mg/kg oral BID 3 days): 19 ± 6 (n = 7) % of control
- AG/Total-ghrelin (% of vehicle control) ([2]; 18 mg/kg oral BID 3 days): 14 ± 2 (n = 7) % of vehicle control
- UAG (% of vehicle control) ([2]; 18 mg/kg oral BID 3 days): 279 ± 36 (n = 7) % of vehicle control
- IC50 [1]: 68.9 ± 23.6 nM

SMILES: COC(=O)N[C@@H](C)C(=O)N1CCC(CCc2c(N)nc(C)nc2Cl)CC1 [Example 71, Methyl N-[(1S)-2-[4-[2-(4-amino-6-chloro-2-methyl-pyrimidin-5-yl)ethyl]-1-piperidyl]-1-methyl-2-oxo-ethyl]carbamate]
- decrease of plasma AG ([2]; 0.3 mg/kg): 13%
- increase of UAG ([2]; 0.3 mg/kg): 2.87 fold
- reduction in AG to total ghrelin ratio ([2]; 0.3 mg/kg): 59%
- decrease of plasma AG ([2]; 1 mg/kg): 37%
- increase of UAG ([2]; 1 mg/kg): 3.44 fold
- reduction in AG to total ghrelin ratio ([2]; 1 mg/kg): 73%
- decrease of plasma AG ([2]; 3 mg/kg): 66%
- increase of UAG ([2]; 3 mg/kg): 2.90 fold
- reduction in AG to total ghrelin ratio ([2]; 3 mg/kg): 82%
- AG (% of control) ([2]; 0.3 mg/kg oral BID 3 days): 87 ± 18 (n = 7) % of control
- AG/Total-ghrelin (% of vehicle control) ([2]; 0.3 mg/kg oral BID 3 days): 41 ± 3 (n = 7) % of vehicle control
- UAG (% of vehicle control) ([2]; 0.3 mg/kg oral BID 3 days): 287 ± 43 (n = 7) % of vehicle control
- AG (% of control) ([2]; 1 mg/kg oral BID 3 days): 63 ± 15 (n = 7) % of control
- AG/Total-ghrelin (% of vehicle control) ([2]; 1 mg/kg oral BID 3 days): 27 ± 2 (n = 7) % of vehicle control
- UAG (% of vehicle control) ([2]; 1 mg/kg oral BID 3 days): 344 ± 63 (n = 7) % of vehicle control
- AG (% of control) ([2]; 3 mg/kg oral BID 3 days): 34 ± 5 (n = 7) % of control
- AG/Total-ghrelin (% of vehicle control) ([2]; 3 mg/kg oral BID 3 days): 18 ± 1 (n = 7) % of vehicle control
- UAG (% of vehicle control) ([2]; 3 mg/kg oral BID 3 days): 290 ± 30 (n = 7) % of vehicle control
- IC50 [1]: 149 ± 46 nM
